The values that follow are results of earlier work, collected in patent US20140127235A1, “TARGETING HK alpha FOR CONTROLLING BLOOD PRESSURE AND REGULATING ELECTROLYTE BALANCE” (UNIVERSITY OF FLORIDA RESEARCH FOUNDATION, INC., priority 2011, published 2014).

Each structure is given as a SMILES string.

Data set [1] deals with H^+,K^+-ATPase. The conditions noted are these: rats, seven days low, normal or high aldosterone levels, normal and high K+ diets; cited from earlier work.
For data set [2], the system named is HKa2 mRNA. The conditions noted are these: progesterone alone (Elabida et al., 2011); cited from earlier work.
Data set [3] concerns the target HKα1-containing H^+,K^+-ATPases (Homo sapiens, UniProt P20648). The conditions noted are these: subsequent studies; cited from earlier work.

HKα1-containing H^+,K^+-ATPases, sequence (P20648 whole entry): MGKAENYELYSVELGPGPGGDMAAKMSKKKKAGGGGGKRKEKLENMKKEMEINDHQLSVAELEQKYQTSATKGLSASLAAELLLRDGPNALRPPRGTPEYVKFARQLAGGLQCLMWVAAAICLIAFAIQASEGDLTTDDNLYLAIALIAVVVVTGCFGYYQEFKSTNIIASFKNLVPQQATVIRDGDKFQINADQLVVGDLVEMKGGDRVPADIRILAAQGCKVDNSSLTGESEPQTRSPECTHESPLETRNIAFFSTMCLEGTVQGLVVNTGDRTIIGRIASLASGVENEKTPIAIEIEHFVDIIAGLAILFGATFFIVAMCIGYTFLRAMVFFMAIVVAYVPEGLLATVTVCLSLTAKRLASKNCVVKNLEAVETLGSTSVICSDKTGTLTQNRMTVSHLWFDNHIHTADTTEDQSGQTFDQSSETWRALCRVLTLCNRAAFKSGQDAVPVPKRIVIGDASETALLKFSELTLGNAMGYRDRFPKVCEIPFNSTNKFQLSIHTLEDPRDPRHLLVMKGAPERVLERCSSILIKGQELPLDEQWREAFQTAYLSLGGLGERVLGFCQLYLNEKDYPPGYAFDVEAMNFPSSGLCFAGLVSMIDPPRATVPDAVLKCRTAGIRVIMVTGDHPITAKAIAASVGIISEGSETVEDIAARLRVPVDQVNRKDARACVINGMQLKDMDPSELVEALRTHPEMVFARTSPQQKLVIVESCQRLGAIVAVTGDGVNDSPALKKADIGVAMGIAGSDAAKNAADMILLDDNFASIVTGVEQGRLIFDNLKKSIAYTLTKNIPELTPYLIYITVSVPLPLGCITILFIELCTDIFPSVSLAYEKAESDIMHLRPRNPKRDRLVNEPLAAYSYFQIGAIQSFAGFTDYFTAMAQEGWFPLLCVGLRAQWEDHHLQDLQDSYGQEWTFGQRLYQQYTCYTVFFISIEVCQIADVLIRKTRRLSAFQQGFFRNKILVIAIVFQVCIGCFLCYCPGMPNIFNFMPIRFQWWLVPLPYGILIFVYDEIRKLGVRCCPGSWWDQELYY
HKα1-containing H^+,K^+-ATPases, sequence (P51164 whole entry partner): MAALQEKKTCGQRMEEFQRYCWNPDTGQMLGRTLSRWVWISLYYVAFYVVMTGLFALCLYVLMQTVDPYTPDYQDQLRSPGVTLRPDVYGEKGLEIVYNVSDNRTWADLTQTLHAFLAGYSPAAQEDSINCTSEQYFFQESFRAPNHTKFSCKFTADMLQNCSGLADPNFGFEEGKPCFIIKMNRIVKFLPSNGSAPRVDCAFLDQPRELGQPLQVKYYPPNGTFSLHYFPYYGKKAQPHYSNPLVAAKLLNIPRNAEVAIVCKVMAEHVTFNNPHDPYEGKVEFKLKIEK

On to `C[C@]12CCC(=O)C=C1CC[C@@H]1[C@@H]2[C@@H](O)C[C@]2(C=O)[C@@H](C(=O)CO)CC[C@@H]12` [aldosterone], for which the “effect on Schering 28080-sensitive ATPase activity” value in data set [1] was “did not significantly affect”.

In the case of `CC(=O)[C@H]1CC[C@H]2[C@@H]3CCC4=CC(=O)CC[C@]4(C)[C@H]3CC[C@]12C` [progesterone], in data set [2], the “effect on renal HKa2 mRNA expression” value was “stimulated”.

For the molecule `Cc1nc2c(OCc3ccccc3)cccn2c1CC#N` [Schering 28080], the “H+,K+-ATPase isoform inhibited” value in data set [3] was “only inhibit the HKα1-containing H^+,K^+-ATPases”.
